{
  "source": "patent US7012129B2",
  "about": "“Antiviral composition comprising glycine amide” (priority 2001, dated 2006)",
  "key": {"HIV-1 [1]": {"test_system": "HIV-1", "conditions": "for effect on HIV replication/infectivity (in words): 100 μM concentration; for p24 ng/ml Mean: 100 μM peptide, culture supernatant, day 7 after infection (FIG. 1), infected control 53.31", "text": "The tripeptide amides made according to EXAMPLE 1 were used in several HIV-1 infectivity assays to determine the ability of said tripeptide amides to inhibit HIV replication and/or infection. The efficiency of HIV-1 replication and status of HIV-1 infection was monitored by the concentration of p24 protein in the cell supernatant.\nIn a first set of experiments, approximately 3×10^5 H9 cells were infected with HIV-1 (e.g., 50–100 TCID50 per 300,000 H9 cells) to test the inhibitory effect of various tripeptide amides provided at 100 μM concentration.\nBy one approach, virus was added at 50–100 TCID50 to 3×10^5 H9 cells in a total volume of 500 μl containing RPMI 1640 medium supplemented with 10% (v/v) heat-inactivated fetal bovine serum (FBS), L-Glutamine, and Bensylpenicillin and Streptomycin (PS) (approximately 0.5 ml added to 500 ml RPMI medium), all available through LifeTechnology/GIBCO laboratories. This media is referred to as “RPMI++ media.” Cell counting was accomplished using 0.2% tryphanblue dissolved in PBS and a Bürker cell counter chamber. The virus and cells were then mixed gently on a vortex and were incubated at 37° C. for one hour and thirty minutes. Next, the cells were pelleted at 1200 rpm for 7 minutes and the supernatant was discarded.\n(§1) The cells were then resuspended in RPMI++ at a concentration of 3×10^5 cells per ml. […] Cells were then incubated at 37° C. in a 5% CO2 enriched incubator. The medium was changed on day 4, 7, and finally day 11. The infection was stopped on day 11 or 14. During each media change, approximately 0.8 ml was replaced and 0.8 ml of the supernatant was transferred to a sterile 96 well plate and stored at −80° C. for p24 analysis.\n(§2) The presence of p24 in the supernatants was determined using a p24 antigen detection method. […] By one approach, a capture-assay is employed, wherein the viral antigen is captured on a 96-well plate coated with a polyclonal anti-p24 rabbit serum (Swedish Institute for infectious disease control). The captured antigen is then detected with peroxidase conjugated anti-p24 mouse monoclonal antibodies. The conjugate is a pool of three different monoclonal antibodies. The analysis was performed with cell free supernatant directly from the cell culture or with supernatant that had been stored at −20° C. to −80° C.\nAccordingly, a p24 standard was diluted (e.g., 4, 2, 1, 0.5, 0.25, 0.125, 0.0625 ng/ml) in RPMI++ media. […] In some cases, serial dilutions of the supernatants were made so as to more accurately detect p24 concentration. Coated plates (e.g., plates coated with a polyclonal anti-p24 rabbit serum) were washed 4 times with approximately 300–350 μl/well washing buffer (PBS with 0.05% Tween-20). The plates were inverted and tapped against absorbant paper after each wash to discard the superfluous washing buffer. Approximately, 100 μl of each sample and standard was added to individual wells on the plate. The plates were covered with tape and incubated at 37° C. for 2 hours or in the dark at room temperature over night.\nNext, the plates were washed again as above. Approximately 100 μl/well of conjugate diluted in conjugate buffer (PBS with 0.5% Triton X-100, 0.5% Bovine Serum Albumin, 0.05% Tween-20, and 10% Fetal Bovine Serum). The plates were then covered with tape and incubated at 37° C. for 2 to 4 hours."}, "HIV [2]": {"test_system": "HIV", "assay": "Electron microscopy of HIV budding in treated HUT78 cells (nodular structures)", "assay_type": "cell-based"}, "HIV-1 [3]": {"test_system": "HIV-1", "conditions": "for Mean p24: CEM cells, 100 μM, culture supernatant, day 11 after infection (FIG. 2), inf. control 1.62; for inhibition of HIV-1 replication (in words): infected CEM cells, 100 μM concentration", "experimental": "By one approach, virus was added at 50–100 TCID50 to 3×10^5 H9 cells in a total volume of 500 μl containing RPMI 1640 medium supplemented with 10% (v/v) heat-inactivated fetal bovine serum (FBS), L-Glutamine, and Bensylpenicillin and Streptomycin (PS) (approximately 0.5 ml added to 500 ml RPMI medium), all available through LifeTechnology/GIBCO laboratories. […] The virus and cells were then mixed gently on a vortex and were incubated at 37° C. for one hour and thirty minutes. Next, the cells were pelleted at 1200 rpm for 7 minutes and the supernatant was discarded.\nas §1, §2\nAccordingly, a p24 standard was diluted (e.g., 4, 2, 1, 0.5, 0.25, 0.125, 0.0625 ng/ml) in RPMI++ media. The standard, recombinant HIV-1 LAI gag p24, was purchased from NIBSC, Centralized Facility for AIDS Reagent, MRC. (order no EVA620). In some cases, serial dilutions of the supernatants were made so as to more accurately detect p24 concentration. Coated plates (e.g., plates coated with a polyclonal anti-p24 rabbit serum) were washed 4 times with approximately 300–350 μl/well washing buffer (PBS with 0.05% Tween-20). The plates were inverted and tapped against absorbant paper after each wash to discard the superfluous washing buffer. Approximately, 100 μl of each sample and standard was added to individual wells on the plate. The plates were covered with tape and incubated at 37° C. for 2 hours or in the dark at room temperature over night.\nNext, the plates were washed again as above. Approximately 100 μl/well of conjugate diluted in conjugate buffer (PBS with 0.5% Triton X-100, 0.5% Bovine Serum Albumin, 0.05% Tween-20, and 10% Fetal Bovine Serum). The plates were then covered with tape and incubated at 37° C. for 2 to 4 hours. The OPD substrate (ABBOTT) was then prepared by adding 1 tablet of OPD per 5 ml OPD substrate solution (12.8 mg OPD (o-phenylenediamine. 2 HCl) per tablet and 1 tablet was dissolved in 5 ml citrate-phosphate buffer containing 0.02% hydrogen peroxidase). The solution was kept in the dark until it was used. The conjugate bound plates were then washed as above and, after the final wash, 100 μof OPD substrate solution/well was added and the plates were incubated at room temperature for 30 minutes."}, "HIV [4]": {"test_system": "HIV", "assay": "Electron microscopy of HIV budding in treated ACH-2 cells (nodular structures)", "assay_type": "cell-based"}, "[5]": {"conditions": "HIV infected H9 cells, 100 μM, day 11 (FIG. 3)"}, "[6]": {"conditions": "ACH-2 cells, electron microscopy"}},
  "note": "Peptide text beside a SMILES is read from it.",
  "data": [
    {"molecule": "CC[C@H](C)[C@H](NC(=O)[C@H](C)N)C(=O)NCC(N)=O", "note": "[AIG-NH2, alanyl-isoleucyl-glycine-amide] (H-Ala-Ile-Gly-NH2)", "values": [
      {"measurement": "effect on HIV replication/infectivity (in words)", "setting": "HIV-1 [1]; H9 cells", "result": "almost completely inhibited HIV replication"},
      {"measurement": "p24 ng/ml Mean", "setting": "HIV-1 [1]; H9 cells", "result": 10.69, "unit": "ng/mL"}
    ]},
    {"molecule": "CC(C)C[C@H](NC(=O)[C@H](C)N)C(=O)NCC(N)=O", "note": "[ALG-NH2, alanyl-leucyl-glycine-amide] (H-Ala-Leu-Gly-NH2)", "values": [
      {"measurement": "dense nodular structure attached to the outer part of viral envelope", "setting": "HIV [2]", "result": 8, "unit": "%"},
      {"measurement": "treated cells carrying virus particles that had nodular structures on outer membrane", "setting": "HIV [2]", "result": 56, "unit": "%"}
    ]},
    {"molecule": "C[C@H](N)C(=O)N1CCC[C@H]1C(=O)NCC(N)=O", "note": "[APG-NH2, alanyl-prolyl-glycine-amide] (H-Ala-Pro-Gly-NH2)", "values": [
      {"measurement": "effect on HIV replication/infectivity (in words)", "setting": "HIV-1 [1]; H9 cells", "result": "almost completely inhibited HIV replication"},
      {"measurement": "p24 ng/ml Mean", "setting": "HIV-1 [1]; H9 cells", "result": 1.13, "unit": "ng/mL"},
      {"measurement": "Mean p24", "setting": "HIV-1 [3]", "result": 0.01, "unit": "ng/mL"},
      {"measurement": "inhibition of HIV-1 replication (in words)", "setting": "HIV-1 [3]", "result": "inhibit HIV-1 replication"}
    ]},
    {"molecule": "NCC(N)=O", "note": "[G-NH2, glycine amide]", "values": [
      {"measurement": "inhibition of HIV replication at 20 μM (in words)", "setting": "HIV-1 [1]; H9 cells, 20 μM, p24 at day 11 after infection (FIG. 4)", "result": "almost completely inhibited HIV replication"},
      {"measurement": "dose dependence of inhibition of HIV replication (in words)", "setting": "HIV-1 [1]; H9 cells, 0.5–20 μM, p24 at day 11 after infection (FIG. 4)", "result": "inhibits HIV replication in a dose dependent manner"},
      {"measurement": "concentration at which significant inhibition of HIV replication was achieved", "setting": "HIV-1 [1]; H9 cells, p24 at day 11 after infection, 0.5–20 μM tested (FIG. 4)", "result": "less than 5 μM"},
      {"measurement": "amount of p24 in culture supernatant compared with controls (in words)", "setting": "HIV-1 [1]; [5]", "result": "almost identical to that found in the non-infected control"},
      {"measurement": "Mean p24", "setting": "HIV-1 [3]", "result": 0.04, "unit": "ng/mL"},
      {"measurement": "inhibition of HIV-1 replication (in words)", "setting": "HIV-1 [3]", "result": "inhibited HIV-1 replication"}
    ]},
    {"molecule": "NCC(=O)O", "note": "[G-OH, glycine]", "values": [
      {"measurement": "p24 present in the culture supernatant", "setting": "HIV-1 [1]; [5]", "result": "approximately 65 ng/ml"},
      {"measurement": "Mean p24", "setting": "HIV-1 [3]", "result": 1.73, "unit": "ng/mL"},
      {"measurement": "inhibition of HIV-1 replication (in words)", "setting": "HIV-1 [3]", "result": "an inhibition of HIV-1 replication was not observed"}
    ]},
    {"molecule": "NCC(=O)N[C@@H](Cc1ccccc1)C(=O)NCC(N)=O", "note": "[GFG-NH2, glycyl-phenylalanyl-glycine-amide] (H-Gly-Phe-Gly-NH2)", "values": [
      {"measurement": "effect on HIV replication/infectivity (in words)", "setting": "HIV-1 [1]; H9 cells", "result": "almost completely inhibited HIV replication"},
      {"measurement": "p24 ng/ml Mean", "setting": "HIV-1 [1]; H9 cells", "result": 0.45, "unit": "ng/mL"},
      {"measurement": "Mean p24", "setting": "HIV-1 [3]", "result": 0.08, "unit": "ng/mL"},
      {"measurement": "inhibition of HIV-1 replication (in words)", "setting": "HIV-1 [3]", "result": "inhibit HIV-1 replication"}
    ]},
    {"molecule": "NCC(=O)NCC(=O)NCC(N)=O", "note": "[GGG-NH2, glycyl-glycyl-glycine-amide, reference compound] (H-Gly-Gly-Gly-NH2)", "values": [
      {"measurement": "effect on HIV replication/infectivity (in words)", "setting": "HIV-1 [1]; H9 cells", "result": "little affect on HIV infectivity"},
      {"measurement": "p24 ng/ml Mean", "setting": "HIV-1 [1]; H9 cells", "result": 61.82, "unit": "ng/mL"}
    ]},
    {"molecule": "CC(C)C[C@H](NC(=O)CN)C(=O)NCC(N)=O", "note": "[GLG-NH2, glycyl-leucyl-glycine-amide] (H-Gly-Leu-Gly-NH2)", "values": [
      {"measurement": "effect on HIV replication/infectivity (in words)", "setting": "HIV-1 [1]; H9 cells", "result": "almost completely inhibited HIV replication"},
      {"measurement": "p24 ng/ml Mean", "setting": "HIV-1 [1]; H9 cells", "result": 2.71, "unit": "ng/mL"}
    ]},
    {"molecule": "NCC(=O)N1CCC[C@H]1C(=O)NCC(N)=O", "note": "[GPG-NH2, glycyl-prolyl-glycine-amide, reference compound] (H-Gly-Pro-Gly-NH2)", "values": [
      {"measurement": "dense nodular structure attached to the outer part of viral envelope", "setting": "HIV [2]", "result": 4, "unit": "%"},
      {"measurement": "treated cells carrying virus particles that had nodular structures on outer membrane", "setting": "HIV [2]", "result": 65, "unit": "%"},
      {"measurement": "effect on HIV replication/infectivity (in words)", "setting": "HIV-1 [1]; H9 cells", "result": "almost completely inhibited HIV replication"},
      {"measurement": "p24 ng/ml Mean", "setting": "HIV-1 [1]; H9 cells", "result": 0.42, "unit": "ng/mL"},
      {"measurement": "nodules in cells not stimulated with PMA to produce virus (in words)", "setting": "HIV [4]; ACH-2 cells, 1 mM, no PMA stimulation", "result": "did not show such nodules"},
      {"measurement": "dense nodular structure attached to the outer part of viral envelope", "setting": "HIV [4]; [6]", "result": 2, "unit": "%"},
      {"measurement": "treated cells carrying virus particles that had nodular structures on outer membrane", "setting": "HIV [4]; [6]", "result": 74, "unit": "%"},
      {"measurement": "nodules upon combined treatment with protease inhibitor ritonavir (in words)", "setting": "HIV [4]; PMA stimulated ACH-2 cells, GPG-NH2 1 mM plus ritonavir 2 μM", "result": "gave no such nodules"},
      {"measurement": "Mean p24", "setting": "HIV-1 [3]", "result": 0.07, "unit": "ng/mL"}
    ]},
    {"molecule": "NCC(=O)N[C@@H](Cc1c[nH]c2ccccc12)C(=O)NCC(N)=O", "note": "[GWG-NH2, glycyl-tryptophanyl-glycine-amide] (H-Gly-Trp-Gly-NH2)", "values": [
      {"measurement": "effect on HIV replication/infectivity (in words)", "setting": "HIV-1 [1]; H9 cells", "result": "almost completely inhibited HIV replication"},
      {"measurement": "p24 ng/ml Mean", "setting": "HIV-1 [1]; H9 cells", "result": 0.61, "unit": "ng/mL"},
      {"measurement": "Mean p24", "setting": "HIV-1 [3]", "result": 0.15, "unit": "ng/mL"},
      {"measurement": "inhibition of HIV-1 replication (in words)", "setting": "HIV-1 [3]", "result": "inhibit HIV-1 replication"}
    ]},
    {"molecule": "NCC(=O)N[C@@H](Cc1ccc(O)cc1)C(=O)NCC(N)=O", "note": "[GYG-NH2, glycyl-tyrosyl-glycine-amide] (H-Gly-Tyr-Gly-NH2)", "values": [
      {"measurement": "Mean p24", "setting": "HIV-1 [3]", "result": 0.02, "unit": "ng/mL"},
      {"measurement": "inhibition of HIV-1 replication (in words)", "setting": "HIV-1 [3]", "result": "inhibited HIV-1 replication"}
    ]},
    {"molecule": "CC(C)C[C@H](N)C(=O)N[C@@H](CC(N)=O)C(=O)N[C@@H](Cc1ccccc1)C(N)=O", "note": "[LNF-NH2, leucyl-asparagyl-phenylalanine-amide, reference compound] (H-Leu-Asn-Phe-NH2)", "values": [
      {"measurement": "Mean p24", "setting": "HIV-1 [3]", "result": 1.45, "unit": "ng/mL"}
    ]},
    {"molecule": "fenylalanyl-leucyl-glycine-amide [FLG-NH2]", "values": [
      {"measurement": "effect on HIV replication/infectivity (in words)", "setting": "HIV-1 [1]; H9 cells", "result": "almost completely inhibited HIV replication"},
      {"measurement": "p24 ng/ml Mean", "setting": "HIV-1 [1]; H9 cells", "result": 0.25, "unit": "ng/mL"},
      {"measurement": "Mean p24", "setting": "HIV-1 [3]", "result": 0.00, "unit": "ng/mL"},
      {"measurement": "inhibition of HIV-1 replication (in words)", "setting": "HIV-1 [3]", "result": "inhibit HIV-1 replication"}
    ]},
    {"molecule": "prolyl-glycine-arginine-amide [PGR-NH2, reference compound]", "values": [
      {"measurement": "effect on HIV replication/infectivity (in words)", "setting": "HIV-1 [1]; H9 cells", "result": "little affect on HIV infectivity"},
      {"measurement": "p24 ng/ml Mean", "setting": "HIV-1 [1]; H9 cells", "result": 55.93, "unit": "ng/mL"}
    ]},
    {"molecule": "α-tertiary-butylglycine-prolyl-glycine-amide [tbutGPG-NH2]", "values": [
      {"measurement": "effect on HIV replication/infectivity (in words)", "setting": "HIV-1 [1]; H9 cells", "result": "almost completely inhibited HIV replication"},
      {"measurement": "p24 ng/ml Mean", "setting": "HIV-1 [1]; H9 cells", "result": 0.44, "unit": "ng/mL"},
      {"measurement": "Mean p24", "setting": "HIV-1 [3]", "result": -0.01, "unit": "ng/mL"},
      {"measurement": "inhibition of HIV-1 replication (in words)", "setting": "HIV-1 [3]", "result": "inhibit HIV-1 replication"}
    ]}
  ]
}
